Test results reported in publication PMC3871529, “At a Supra-Physiological Concentration, Human Sexual Hormones Act as Quorum-Sensing Inhibitors” (PLoS ONE, 2013).
In brackets after ≈: the same amount, converted by molar mass.

Experiments:
[1] = test system: Agrobacterium biosensor cells; test: Minimal inhibitory concentration (MIC); type: cell-based, Agrobacterium tumefaciens; details: Agrobacterium; 10^5 CFU/ml, 36 h at 30°C; read-out: MIC
Method: (§1) Aside from the effect of QSI on QS regulation, the toxicity of these compounds was tested on bacterial cells by measuring two parameters: the minimal inhibitory concentration (MIC) and minimal bactericidal concentration (MBC). MIC, which is the lowest concentration of QSI (µg/ml) inhibiting any visible culture after 36 h of incubation at 30°C, was estimated by culturing 10^5 CFU/ml of the Agrobacterium biosensor cells in the presence of different concentrations of the QSI. MBC, which is the lowest concentration of QSI (µg/ml) that results in a 99.9% reduction of the initial bacterial population (10^5 CFU/ml) after 36 h of incubation at 30°C in the presence of different concentrations of QSI, was estimated by plating 100 µL of the Agrobacterium cultures on agar LBm plates. After an incubation of 48 h at 30°C, CFU were counted and the MBC values were calculated.

[2] = test system: Agrobacterium biosensor cells; test: Minimal bactericidal concentration (MBC); type: cell-based, Agrobacterium tumefaciens; details: Agrobacterium; 99.9% reduction of 10^5 CFU/ml after 36 h at 30°C; read-out: MBC
Method: as §1

[3] = test system: QS-regulated Ti-plasmid transfer in A. tumefaciens; test: QS-regulated Ti-plasmid transfer (conjugation) assay; type: cell-based, Agrobacterium tumefaciens; details: QSI at 0.1 mg/ml, OC8-HSL 500 pM, 72 h at 24°C
Method: Figure 4 In vitro Ti plasmid transfer frequency in Agrobacterium. The Ti plasmid transfer frequencies were measured in the presence of QSI (A) and the four 1248-diastereoisomeres (B) at 0.1 mg/ml. Histograms represent the cell density of transconjugants (CFU/ml), while black diamonds and squares, those of the donor and recipient strains, respectively. Measurements were performed in quadruplicate and the experiment was repeated twice. The cell densities of transconjugants in the presence of QSI were compared to that of the control in the presence of DMSO with a Mann and Whitney test (α = 0.05). Statistically different values are noted by asterisks.
In A. tumefaciens, the transfer of the Ti-plasmid from a donor cell to a recipient one is controlled by QS. QSI were evaluated for their capacity to reduce plasmid transfer frequency in Agrobacterium. In the plasmid transfer assay, two modified Agrobacterium strains were used: a Ti-plasmid donor, which requires exogenous AHL to transfer a kanamycin-resistant (Km^r) Ti-plasmid, and a rifampicin-resistant (Rif^r) recipient strain, which is free of Ti-plasmid. Overnight cultures of the donor and recipient strains were mixed with 500 pM of oxo-octanoylhomoserine lactone (OC8-HSL) and 0.1 mg/ml of QSI in LBm medium. Each combination was repeated 4 times in microwell plates.

P. aeruginosa = test: Growth kinetics of P. aeruginosa in the presence of QSIs; type: cell-based, Pseudomonas aeruginosa; details: QSI at 0.5 mg/ml, OD600 and CFU at 8 and 18 hour
Method: (§2) Figure 5 QSIs modulated QS-signal accumulation in P. aeruginosa. Growth kinetics (n = 6) of P. aeruginosa was measured (OD600) in the presence of the QSIs (estradiol, estrone, estriol, hordenine and 4-NPO) at 0.5 mg/ml using DMSO as a negative control. Cell counts were assessed (CFU/ml) at 8- and 18-hour, and C4-HSL and OC12-HSL concentration (µM) were determined in the bacterial cultures at 18-hour. Statistically different values (Student's t test with α = 0.01) are noted by asterisks.
(§3) QS gene transcription in P. aeruginosa PAO1 was monitored using PAO1 strains carrying various gene promoters fused to a lacZ reporter gene, as described in Vandeputte et al., 2010 and Table 1. PAO1 reporter strains were prepared according to Vandeputte et al.. Briefly, 18-hours-old liquid cultures (50 µl) were diluted in order to obtain a starting OD600 nm comprised between 0.02 and 0.03 in fresh LB medium supplemented with 50 mM MOPS pH 7.0 (1 ml), carbenicillin (300 µg/ml) and 10 µl of the QSIs to be tested (OD were measured using a SpectraMax M2 device from Molecular Devices). Test and control QSIs were diluted in 100% DMSO (resulting after addition to the growth medium in a 1% final concentration of DMSO). Cultures were incubated for 18 hours at 37°C with agitation. After incubation, cell densities were assessed spectrophotometrically (OD600 nm) and β-galactosidase assays were performed using the substrate o-nitrophenyl-β-D-galactopyranoside as described previously, [29]. Promoterless-lacZ fusions were used as controls. AHLs were quantified as described in Vandeputte et al.. All tests were performed in quintuplicates and three biological repetitions. The statistical significance of each test was evaluated by conducting Student's t tests and two-way ANOVA combined with the Tukey post-analysis test using the GraphPad Prism software and p values≤0.01 were considered significant.

[4] = test system: QS-signal accumulation in P. aeruginosa; test: AHL (C4-HSL, OC12-HSL) quantification in P. aeruginosa cultures by mass spectrometry; type: cell-based, Pseudomonas aeruginosa; details: QSI at 0.5 mg/ml, 18-hour
Method: as §2, §3

[5] = test system: A. tumefaciens NT1(pZLR4) traG-lacZ reporter fusion; test: QSI activity on A. tumefaciens AHL-bioindicator (traG-lacZ β-galactosidase); type: cell-based, Agrobacterium tumefaciens; details: for QSI hit in library screening: second screening: compounds at 5 µg/ml, C8-HSL 10 nM, A. tumefaciens biosensor
Method: Two bacterial QS-signal biosensors were used. Chromobacterium violaceum CV026 [41] was grown in Luria-Bertani modified (LBm) medium, in which the NaCl concentration was 5 g/l instead of 10 g/l. Agrobacterium tumefaciens NT1(pZLR4) was grown in AB minimal medium supplemented with mannitol (0.2%). After supplementation with appropriate AHL, each of the QS-biosensors expresses a reporting activity, which is the production of the pigment violacein in C. violaceum CV026 and that of β-galactosidase from the transcriptional fusion traG::lacZ in A. tumefaciens NT1(pZLR4).
When the screening was performed, the chemical library of the Institut de Chimie des Substances Naturelles (ICSN, Gif-sur-Yvette, France) contained more than 3500 synthetic and natural compounds, which were individually dissolved in dimethylsulfoxide (DMSO) at 1mg/ml and stored in 96 microwell plates. A first screening was performed by mixing biosensor CV026 with the AHL hexanoylhomoserine lactone (C6-HSL) at 0.5 µM and the tested compounds at 50 µg/ml. Final volume was adjusted to 100 µl with a synthetic medium (10% LBm and 0.4% sucrose). After 24 hours of incubation at 30°C, the presence or absence of violacein pigment was quoted by visual reading. […] Final volume was adjusted to 100 µl by the addition of AB minimal medium supplemented with mannitol (0.2%) and TY medium (10%). After 4 hours of incubation at 30°C, β-galactosidase activity was measured in A. tumefaciens cultures as previously described. In the two screenings, 4-nitropyridine-N-oxide (4-NPO) was used as a QSI reference. […]

[6] = test system: QS-regulated genes lasI, lasR, lasB, rhlI, rhlR, rhlA in P. aeruginosa PAO1; test: QS-regulated gene expression, lacZ transcriptional fusions in PAO1; type: cell-based, Pseudomonas aeruginosa; details: QSI at 0.5 mg/ml, 18 hours at 37°C, β-galactosidase
Method: Figure 6 QSIs modulated QS-regulated genes in P. aeruginosa. The β-galactosidase (b-Gal) activity in Miller unit (MU) of the transcriptional fusions lasI-lacZ (A), lasR-lacZ (B), lasB-lacZ (C), rhlI-lacZ (D), rhlR-lacZ (E), rhlA-lacZ (F), and aecA-lacZ(G) were measured in the presence of estradiol, estrone, estriol, hordenine at 0.5 mg/ml, and naringenin at 1 mg/ml as a positive control and DMSO as a negative control. The statistical significance of each test (n = 5 and three biological replicates) was evaluated by Student's t test (i.e. each test was compared with the DMSO condition). Asterisks indicate statistically different data (p value of ≤0.01).
as §3

LasR = molecular target: T1, LasR (Pseudomonas aeruginosa, UniProt P25084); test: E. coli bioindicator expressing LasR (pAL105, lasI::luxCDABE luminescence); type: cell-based; details: OC12-HSL 100 µM; QSIs at 0.1 mg/ml, naringenin and naringin at 0.5 mg/ml
T1 construct: expressed in transfected cells; host or cells: Escherichia coli JLD271 carrying pAL105 (pSB401-derivative, lasR+ lasI::luxCDABE)
T1 sequence (P25084 whole entry): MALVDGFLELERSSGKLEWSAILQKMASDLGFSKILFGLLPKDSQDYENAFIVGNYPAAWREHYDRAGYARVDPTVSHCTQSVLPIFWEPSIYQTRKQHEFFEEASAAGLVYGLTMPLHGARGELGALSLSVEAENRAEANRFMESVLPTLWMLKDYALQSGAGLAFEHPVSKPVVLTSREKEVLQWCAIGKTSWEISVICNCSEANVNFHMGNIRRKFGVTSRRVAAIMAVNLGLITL
Method: We determined whether the AHL-binding transcriptional factors LasR and RhlR were impaired in their capacity to activate expression of the QS-regulated genes in the presence of various QSIs. This was achieved by using two E. coli bioindicator strains expressing either LasR or RhlR proteins and harboring an appropriate reporter lux operon for measuring their transcriptional activity in the presence of OC12-HSL at 100 µM and C4-HSL at 10 µM, respectively. Adding C4-HSL to the pAL101-bioindicator or OC12-HSL to the pAL105-bioindicator induced the expression of the reporter lux operon and the consequent production of luminescence. In contrast, only background levels of luminescence were detected in control strains harboring the plasmids pAL102 or pAL106, which lacks the rhlR or lasR gene, respectively.
Figure 7 QSIs modulated activity of the AHL-sensors in P. aeruginosa. Luminescence of the reporting operon lux, expressed in relative light units (RLU/OD600), was measured in E. coli bioindicator strains harboring the LasR (A) and RhlR (B) AHL-sensing systems of P. aeruginosa in the presence of […]. The QSIs estradiol, estrone, estriol and hordenine were added at 0.1 mg/ml, while naringenin and naringin, added at 0.5 mg/ml, were used as QSI-reference and non-QSI reference, respectively. Each test (n = 6) was compared with the DMSO-condition using Student's t test. Asterisks indicate statistically different data (p value of ≤0.01).
Escherichia coli JLD271 biosensor strains harboring LasR- and RhlR-based plasmids pAL105 and pAL101 and control plasmids pAL106 (LasR^-) and pAL102 (RhlR^−) (Table 1) were prepared according to Vandeputte et al.. Briefly, these strains were grown in LB medium supplemented with tetracycline (10 µg/ml) and chloramphenicol (25 µg/ml) for 24 h. Then 50-µl portions of the cultures were subcultured in 1 ml of LB medium (the starting OD600 ranged between 0.02 and 0.025 corresponding to 5.10^6 CFU) supplemented with 10 µl of DMSO (1% [vol/vol] final), 10 µl of naringenin or naringin dissolved in DMSO (2 mM, final concentration), or 10 µl of the molecule to be tested. To induce the expression of the lux operon, 0, 1, 10 or […] of C4-HSL was added to pAL101 and pAL102, while OC12-HSL was added to pAL105 and pAL106. After incubation for 2 h at 37°C with agitation (175 rpm), 200 µl of culture was transferred to 96-well OptiPlate-96 F plates from Perkin-Elmer, and the luminescence of each sample was measured by using a TopCount NXT device from Perkin-Elmer. The LasR(pAL106) and RhlR(pAL102) biosensors were used for background subtraction, and the OD600 values were measured to account for the differences in cell density. All experiments were performed in six replicates. The statistical significance of each test was evaluated by conducting Student's t tests using the GraphPad Prism software, and p values ≤0.05 were considered significant. Naringenin (4′,5,7-trihydroxyflavanone), naringin (4′,5,7-trihydroxyflavanone 7-rhamnoglucoside), the AHLs OC12-HSL and C4-HSL were purchased from Sigma-Aldrich and dissolved freshly in 100% DMSO before use. Tested QSIs were dissolved in 100% DMSO before use.

| SMILES | MIC [1] [µg/mL] | MBC [2] [µg/mL] | decrease of plasmid transfer efficiency [3] [fold] | effect on growth of P. aeruginosa (P. aeruginosa) | C4-HSL concentration in cell cultures [4] | OC12-HSL concentration in cell cultures [4] | QSI hit in library screening [5] | effect on Ti plasmid transfer frequency (words) [3] | inhibition at 100 µg/mL ([5]; Agrobacterium tumefaciens, read-out: inhibition (%) at 100 µg/ml) [%] | expression of six QS-regulated genes (lasI, lasR, lasB, rhlI, rhlR, rhlA) [6] | effect on LasR functionality (lux luminescence) (LasR) |
| --- | --- | --- | --- | --- | --- | --- | --- | --- | --- | --- | --- |
| O=[N+]([O-])c1cc[n+]([O-])cc1 [Compound 4-NPO, 4-nitropyridine-N-oxide, reference compound] | 25 (≈ 178 µM) | > 100 | 10 | slightly delayed the growth | reduction | reduction | – | – | – | – | – |
| CC(C)CCC[C@@H](C)[C@H]1CCC2C3CC=C4C[C@@H](Cl)CC[C@]4(C)C3CC[C@@]21C (some centres unmarked) [Compound 1099] | 100 (≈ 247 µM) | > 100 | – | – | – | – | hits | significantly reduce the plasmid transfer frequency by one order of magnitude | – | – | – |
| COc1nc([N+](=O)[O-])nn1[C@H]1C[C@H](O)[C@@H](CO)O1 [Compound 1102] | > 100 | > 100 | – | – | – | – | hits | significantly reduce the plasmid transfer frequency by one order of magnitude | 0 | – | – |
| Cc1ccc(S(=O)(=O)CCC(=O)c2ccccc2)cc1 [Compound 1577] | 3 (≈ 10.4 µM) | 25 (≈ 86.7 µM) | – | – | – | – | hits | significantly reduce the plasmid transfer frequency by one order of magnitude | – | – | – |
| C[C@]12CC[C@@H]3c4ccc(O)cc4CC[C@H]3[C@@H]1CC[C@@H]2O [Estradiol, estradiol] | > 100 | > 100 | – | did not affect the growth | reduction | reduction | – | – | – | decreased | affected LasR functionality |
